Results published in publication PMC8772433 (Nature structural & molecular biology, 2021).

Target: SARS-CoV-2 ORF3a (3a), dimer (Severe acute respiratory syndrome coronavirus 2, UniProt P0DTC3)
Test: patch-clamp current recording, excised inside-out patches of 3a-proteoliposomes
Format: biochemical
Conditions: symmetric 150 mM KCl, pH 7.2, -80 mV, room temperature; soy PC proteoliposomes; flickery block at negative potentials

SARS-CoV-2 ORF3a (3a), dimer, sequence (P0DTC3 whole entry): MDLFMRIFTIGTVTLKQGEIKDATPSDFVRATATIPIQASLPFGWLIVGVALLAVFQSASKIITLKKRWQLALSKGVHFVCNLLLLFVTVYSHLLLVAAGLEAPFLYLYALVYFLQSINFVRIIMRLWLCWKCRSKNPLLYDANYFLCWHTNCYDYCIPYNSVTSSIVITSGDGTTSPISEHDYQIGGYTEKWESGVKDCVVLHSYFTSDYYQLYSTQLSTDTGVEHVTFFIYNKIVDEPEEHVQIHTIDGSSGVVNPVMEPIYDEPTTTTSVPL

Ruthenium Red
IC50: 90 ± 10 µM
